We go through 17 compounds from patent US20250122219A1 (priority 2023, published 2025).

One series concerns HIV-1 (IIIB). Briefly: Antiviral assay in MT-4 cells. Format: cell-based. The conditions noted are these: Human immunodeficiency virus 1, MT4, 120 h; HIV-1 IIIB in MT-4 cells, 5 days incubation, Cell Titer Glo; read-out: MT4 EC50. A digest of the protocol:
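HIV-1 IIIB-infected MT-4 cells (fresh 1:250 virus stock dilution; mock-infected controls) incubated 5 days at 37 °C with serially diluted compounds in RPMI/10% FBS; 5 μM AZT as positive control. Cell viability read by CellTiter-Glo luminescence as measure of protection from viral replication.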
A general note: ATP-based viability assays read luminescence as a measure of living cells.

The nature of series [1]: Cytotoxicity assay in MT-4 cells. The settings on record: human; uninfected MT-4 cells, 5 days incubation, Cell Titer Glo; read-out: MT4 CC50. Format: cell-based. A digest of the protocol: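 Uninfected MT-4 cells exposed to serially diluted compounds in RPMI with 10% FBS for 5 days at 37 °C. Viability by Cell Titer Glo chemiluminescence. Puromycin […] as baseline cytotoxicity control.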

Molecules are shown by their SMILES.

Broadly, the EC50 is the midpoint of the concentration-response curve. The CC50 is the concentration at which the toxic effect on the cells reaches its halfway point. Consider `CC1=NO[C@@]2(CC[C@H](C)N3C[C@H]2n2cc(C(=O)NCc4ccc(F)cc4F)c(=O)c(OC(=O)OCC(C)C)c2C3=O)C1` [Example 148, (3′S,5S,7′R)-10′-((2,4-difluorobenzyl)carbamoyl)-3,3′-dimethyl-1′,11′-dioxo-1′,4′,5′,11′-tetrahydro-3′H,4H,7′H-spiro[isoxazole-5,6′-[2,7]methanopyrido[1,2-a][1,4]diazonin]-12′-yl isobutyl carbonate], for which the EC50 with HIV-1 (IIIB) is 0.00185 µM. Also, in series [1], the half-maximal cytotoxic concentration (CC50) at 5 days was 16.1 µM.

Regarding `COC1=NO[C@@]2(CC[C@H](C)N3C[C@H]2n2cc(C(=O)NCc4ccc(F)cc4F)c(=O)c(OC(=O)OCC(C)C)c2C3=O)C1` [Example 149, (3′S,5S,7′R)-10′-((2,4-difluorobenzyl)carbamoyl)-3-methoxy-3′-methyl-1′,11′-dioxo-1′,4′,5′,11′-tetrahydro-3′H,4H,7′H-spiro[isoxazole-5,6′-[2,7]methanopyrido[1,2-a][1,4]diazonin]-12′-yl isobutyl carbonate], in the series with HIV-1 (IIIB), the half-maximal effective concentration (EC50) is 0.00217 µM. For the same compound, the CC50 at 5 days in series [1] was determined as 15.9 µM.

In the case of `CC1=NO[C@@]2(CC[C@H](C)N3C[C@H]2n2cc(C(=O)NCc4ccc(F)cc4F)c(=O)c(OC(=O)OCCC(C)C)c2C3=O)C1` [Example 150, (3′S,5S,7′R)-10′-((2,4-difluorobenzyl)carbamoyl)-3,3′-dimethyl-1′,11′-dioxo-1′,4′,5′,11′-tetrahydro-3′H,4H,7′H-spiro[isoxazole-5,6′-[2,7]methanopyrido[1,2-a][1,4]diazonin]-12′-yl isopentyl carbonate], the EC50 in the series with HIV-1 (IIIB) stood at 0.000153 µM. In addition, in series [1], the CC50 at 5 days is 16 µM.

As to `COC1=NO[C@@]2(CC[C@H](C)N3C[C@H]2n2cc(C(=O)NCc4ccc(F)cc4F)c(=O)c(OC(=O)OCCC(C)C)c2C3=O)C1` [Example 151, (3′S,5S,7′R)-10′-((2,4-difluorobenzyl)carbamoyl)-3-methoxy-3′-methyl-1′,11′-dioxo-1′,4′,5′,11′-tetrahydro-3′H,4H,7′H-spiro[isoxazole-5,6′-[2,7]methanopyrido[1,2-a][1,4]diazonin]-12′-yl isopentyl carbonate], in the series with HIV-1 (IIIB), the concentration for a half-maximal effect (EC50) is 0.00017 µM. In series [1], the cytotoxic concentration (CC50) at 5 days turned out to be 18.5 µM.

Consider `CC1=NO[C@@]2(CC[C@H](C)N3C[C@H]2n2cc(C(=O)NCc4ccc(F)cc4F)c(=O)c(OC(=O)OCCCC(C)C)c2C3=O)C1` [Example 152, (3′S,5S,7′R)-10′-((2,4-difluorobenzyl)carbamoyl)-3,3′-dimethyl-1′,11′-dioxo-1′,4′,5′,11′-tetrahydro-3′H,4H,7′H-spiro[isoxazole-5,6′-[2,7]methanopyrido[1,2-a][1,4]diazonin]-12′-yl (4-methylpentyl) carbonate], for which the concentration giving a half-maximal response (EC50) with HIV-1 (IIIB) was 0.000573 µM. Besides, the half-maximal cytotoxic concentration (CC50) at 5 days in series [1] was 14.9 µM.

For the compound `COC1=NO[C@@]2(CC[C@H](C)N3C[C@H]2n2cc(C(=O)NCc4ccc(F)cc4F)c(=O)c(OC(=O)OCCCC(C)C)c2C3=O)C1` [Example 153, (3′S,5S,7′R)-10′-((2,4-difluorobenzyl)carbamoyl)-3-methoxy-3′-methyl-1′,11′-dioxo-1′,4′,5′,11′-tetrahydro-3′H,4H,7′H-spiro[isoxazole-5,6′-[2,7]methanopyrido[1,2-a][1,4]diazonin]-12′-yl (4-methylpentyl) carbonate], in the series with HIV-1 (IIIB), the EC50 is 0.000648 µM. Moreover, in series [1], the half-maximal cytotoxic concentration (CC50) at 5 days is 23.6 µM.

For `CC1=NO[C@@]2(CC[C@H](C)N3C[C@H]2n2cc(C(=O)NCc4ccc(F)cc4F)c(=O)c(OC(=O)OCCCCC(C)C)c2C3=O)C1` [Example 154, (3′S,5S,7′R)-10′-((2,4-difluorobenzyl)carbamoyl)-3,3′-dimethyl-1′,11′-dioxo-1′,4′,5′,11′-tetrahydro-3′H,4H,7′H-spiro[isoxazole-5,6′-[2,7]methanopyrido[1,2-a][1,4]diazonin]-12′-yl (5-methylhexyl) carbonate], in the series with HIV-1 (IIIB), the EC50 came to 0.00172 µM. Besides, the CC50 at 5 days in series [1] worked out at 17.2 µM.

As for `COC1=NO[C@@]2(CC[C@H](C)N3C[C@H]2n2cc(C(=O)NCc4ccc(F)cc4F)c(=O)c(OC(=O)OCCCCC(C)C)c2C3=O)C1` [Example 155, (3′S,5S,7′R)-10′-((2,4-difluorobenzyl)carbamoyl)-3-methoxy-3′-methyl-1′,11′-dioxo-1′,4′,5′,11′-tetrahydro-3′H,4H,7′H-spiro[isoxazole-5,6′-[2,7]methanopyrido[1,2-a][1,4]diazonin]-12′-yl (5-methylhexyl) carbonate], the EC50 with HIV-1 (IIIB) was determined as 0.00119 µM. In addition, in series [1], the CC50 at 5 days is 17.5 µM.

In the case of `CC1=NO[C@@]2(CC[C@H](C)N3C[C@H]2n2cc(C(=O)NCc4ccc(F)cc4F)c(=O)c(OC(=O)OCCCCCC(C)C)c2C3=O)C1` [Example 156, (3′S,5S,7′R)-10′-((2,4-difluorobenzyl)carbamoyl)-3,3′-dimethyl-1′,11′-dioxo-1′,4′,5′,11′-tetrahydro-3′H,4H,7′H-spiro[isoxazole-5,6′-[2,7]methanopyrido[1,2-a][1,4]diazonin]-12′-yl (6-methylheptyl) carbonate], in the series on HIV-1 (IIIB), the concentration giving a half-maximal response (EC50) was 0.002 µM. Moreover, the 50% cytotoxic concentration (CC50) at 5 days in series [1] came to 14.7 µM.

Regarding `COC1=NO[C@@]2(CC[C@H](C)N3C[C@H]2n2cc(C(=O)NCc4ccc(F)cc4F)c(=O)c(OC(=O)OCCCCCC(C)C)c2C3=O)C1` [Example 157, (3′S,5S,7′R)-10′-((2,4-difluorobenzyl)carbamoyl)-3-methoxy-3′-methyl-1′,11′-dioxo-1′,4′,5′,11′-tetrahydro-3′H,4H,7′H-spiro[isoxazole-5,6′-[2,7]methanopyrido[1,2-a][1,4]diazonin]-12′-yl (6-methylheptyl) carbonate], the EC50 with HIV-1 (IIIB) is 0.00233 µM. In series [1], the half-maximal cytotoxic concentration (CC50) at 5 days amounted to 15.4 µM.

Regarding `CC1=NO[C@@]2(CC[C@H](C)N3C[C@H]2n2cc(C(=O)NCc4ccc(F)cc4F)c(=O)c(OC(=O)OCCCCCCCC(C)C)c2C3=O)C1` [Example 160, (3′S,5S,7′R)-10′-((2,4-difluorobenzyl)carbamoyl)-3,3′-dimethyl-1′,11′-dioxo-1′,4′,5′,11′-tetrahydro-3′H,4H,7′H-spiro[isoxazole-5,6′-[2,7]methanopyrido[1,2-a][1,4]diazonin]-12′-yl (8-methylnonyl) carbonate], in the series on HIV-1 (IIIB), the 50% effective concentration (EC50) stood at 0.00164 µM. In addition, the cytotoxic concentration (CC50) at 5 days in series [1] turned out to be 12.6 µM.

Turning to `COC1=NO[C@@]2(CC[C@H](C)N3C[C@H]2n2cc(C(=O)NCc4ccc(F)cc4F)c(=O)c(OC(=O)OCCCCCCCC(C)C)c2C3=O)C1` [Example 161, (3′S,5S,7′R)-10′-((2,4-difluorobenzyl)carbamoyl)-3-methoxy-3′-methyl-1′,11′-dioxo-1′,4′,5′,11′-tetrahydro-3′H,4H,7′H-spiro[isoxazole-5,6′-[2,7]methanopyrido[1,2-a][1,4]diazonin]-12′-yl (8-methylnonyl) carbonate], the EC50 with HIV-1 (IIIB) worked out at 0.00159 µM. Further, the 50% cytotoxic concentration (CC50) at 5 days in series [1] was 40.6 µM.

Regarding `COCCOCCOCCOCCOCCOCCOCCOC(=O)Oc1c2n(cc(C(=O)NCc3ccc(F)cc3F)c1=O)[C@@H]1CN(C2=O)[C@@H](C)CC[C@]12CC(C)=NO2` [Example 162, (3′S,5S,7′R)-10′-((2,4-difluorobenzyl)carbamoyl)-3,3′-dimethyl-1′,11′-dioxo-1′,4′,5′,11′-tetrahydro-3′H,4H,7′H-spiro[isoxazole-5,6′-[2,7]methanopyrido[1,2-a][1,4]diazonin]-12′-yl (2,5,8,11,14,17,20-heptaoxadocosan-22-yl) carbonate], the EC50 with HIV-1 (IIIB) was found to be 0.00242 µM. The cytotoxic concentration (CC50) at 5 days in series [1] turned out to be 27.8 µM.

For `COCCOCCOCCOCCOCCOCCOCCOC(=O)Oc1c2n(cc(C(=O)NCc3ccc(F)cc3F)c1=O)[C@@H]1CN(C2=O)[C@@H](C)CC[C@]12CC(OC)=NO2` [Example 163, (3′S,5S,7′R)-10′-((2,4-difluorobenzyl)carbamoyl)-3-methoxy-3′-methyl-1′,11′-dioxo-1′,4′,5′,11′-tetrahydro-3′H,4H,7′H-spiro[isoxazole-5,6′-[2,7]methanopyrido[1,2-a][1,4]diazonin]-12′-yl (2,5,8,11,14,17,20-heptaoxadocosan-22-yl) carbonate], in the series with HIV-1 (IIIB), the concentration for a half-maximal effect (EC50) is 0.00208 µM. In addition, the CC50 at 5 days in series [1] was found to be 37.6 µM.

Turning to `CCOC(=O)OCOc1c2n(cc(C(=O)NCc3ccc(F)cc3F)c1=O)[C@@H]1CN(C2=O)[C@@H](C)CC[C@]12CC(OC)=NO2` [Example 173, (((3′S,5S,7′R)-10′-((2,4-difluorobenzyl)carbamoyl)-3-methoxy-3′-methyl-1′,11′-dioxo-1′,4′,5′,11′-tetrahydro-3′H,4H,7′H-spiro[isoxazole-5,6′-[2,7]methanopyrido[1,2-a][1,4]diazonin]-12′-yl)oxy)methyl ethyl carbonate], in the series with HIV-1 (IIIB), the 50% effective concentration (EC50) came to 0.00475 µM. Moreover, the CC50 at 5 days in series [1] turned out to be 37.9 µM.

In the case of `CCCOC(=O)OCOc1c2n(cc(C(=O)NCc3ccc(F)cc3F)c1=O)[C@@H]1CN(C2=O)[C@@H](C)CC[C@]12CC(C)=NO2` [Example 174, (((3′S,5S,7′R)-10′-((2,4-difluorobenzyl)carbamoyl)-3,3′-dimethyl-1′,11′-dioxo-1′,4′,5′,11′-tetrahydro-3′H,4H,7′H-spiro[isoxazole-5,6′-[2,7]methanopyrido[1,2-a][1,4]diazonin]-12′-yl)oxy)methyl propyl carbonate], the EC50 with HIV-1 (IIIB) worked out at 0.00241 µM. Moreover, the 50% cytotoxic concentration (CC50) at 5 days in series [1] worked out at 18.1 µM.

As for `CCCOC(=O)OCOc1c2n(cc(C(=O)NCc3ccc(F)cc3F)c1=O)[C@@H]1CN(C2=O)[C@@H](C)CC[C@]12CC(OC)=NO2` [Example 175, (((3′S,5S,7′R)-10′-((2,4-difluorobenzyl)carbamoyl)-3-methoxy-3′-methyl-1′,11′-dioxo-1′,4′,5′,11′-tetrahydro-3′H,4H,7′H-spiro[isoxazole-5,6′-[2,7]methanopyrido[1,2-a][1,4]diazonin]-12′-yl)oxy)methyl propyl carbonate], the EC50 in the series with HIV-1 (IIIB) was 0.00206 µM. Also, the CC50 at 5 days in series [1] came to 23.3 µM.
